Data published in patent US8426397B2, “3 (3-pyrimidin-2-ylbenzyl)-1,2,4-triazolo[4,3-b]pyridazine derivatives” (Merck Patent Gesellschaft mit Beschränkter Haftung, priority 2008, dated 2013).

How the values were obtained:
Met kinase [1] = target: T1, Met kinase (Homo sapiens, UniProt P08581); assay: Met kinase flashplate method (enzyme); format: biochemical; design: 6His (N); purchased Upstate 14-526; host or cells: Sf21 insect cells (S. frugiperda), baculovirus; conditions: Met kinase inhibition
Excerpt: According to the manufacturer's data (Met, active, Upstate, catalogue No. 14-526), Met kinase is expressed for the purposes of protein production in insect cells (Sf21; S. frugiperda) and subsequent affinity-chromatographic purification as “N-terminal 6His-tagged” recombinant human protein in a baculovirus expression vector.
Flashplate Method (Met Kinase)
The test plates used are 96-well Flashplate® microtitre plates from Perkin Elmer (Cat. No. SMP200). The components of the kinase reaction described below are pipetted into the assay plate. The Met kinase and the substrate poly Ala-Glu-Lys-Tyr, (pAGLT, 6:2:5:1), are incubated for 3 hrs at room temperature with radioactively labelled ^33P-ATP in the presence and absence of test substances in a total volume of 100 μl. The reaction is terminated using 150 μl of a 60 mM EDTA solution. After incubation for a further 30 min at room temperature, the supernatants are filtered off with suction, and the wells are washed three times with 200 μl of 0.9% NaCl solution each time. The measurement of the bound radioactivity is carried out by means of a scintillation measuring instrument (Topcount NXT, Perkin-Elmer).
The full value used is the inhibitor-free kinase reaction. This should be approximately in the range 6000-9000 cpm. The pharmacological zero value used is staurosporin in a final concentration of 0.1 mM. The inhibitory values (IC50) are determined using the RS1_MTS program.
Kinase reaction conditions per well:
10 μl of substance to be tested in assay buffer with 10% of DMSO
10 μl of ATP (final concentration 1 μM cold, 0.35 μCi of ^33P-ATP)
50 μl of Met kinase/substrate mixture in assay buffer;
• (10 ng of enzyme/well, 50 ng of pAGLT/well) • Solutions used: • Assay buffer: • 50 mM HEPES • 3 mM magnesium chloride • 3 μM sodium orthovanadate • 3 mM manganese(II) chloride • 1 mM dithiothreitol (DTT) • pH=7.5 (to be set using sodium hydroxide) • Stop solution: • 60 mM Titriplex III (EDTA) • ^33P-ATP: Perkin-Elmer; • Met kinase: Upstate, Cat, No. 14-526, Stock 1 μg/10 μl; spec. activity 954 U/mg; • Poly-Ala-Glu-Lys-Tyr, 6:2:5:1: Sigma Cat. No. P1152 In-Vivo Tests
Target sequence in this assay (P08581 974-1390 limits assumed): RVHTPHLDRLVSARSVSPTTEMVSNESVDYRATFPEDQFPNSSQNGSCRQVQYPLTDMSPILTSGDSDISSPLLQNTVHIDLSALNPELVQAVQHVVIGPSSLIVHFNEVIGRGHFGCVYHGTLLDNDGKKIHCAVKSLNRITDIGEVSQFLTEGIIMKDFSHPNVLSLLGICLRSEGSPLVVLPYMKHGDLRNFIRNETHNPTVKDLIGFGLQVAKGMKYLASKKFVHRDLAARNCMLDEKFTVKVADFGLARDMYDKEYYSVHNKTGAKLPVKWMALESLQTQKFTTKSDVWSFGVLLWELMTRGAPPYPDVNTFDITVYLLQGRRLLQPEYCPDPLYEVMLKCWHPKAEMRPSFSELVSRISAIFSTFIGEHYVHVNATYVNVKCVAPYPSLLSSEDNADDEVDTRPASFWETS

Met kinase [2] = target: T1, Met kinase; assay: Met kinase inhibition (cell); format: cell-based
Target sequence in this assay (P08581 25-1390): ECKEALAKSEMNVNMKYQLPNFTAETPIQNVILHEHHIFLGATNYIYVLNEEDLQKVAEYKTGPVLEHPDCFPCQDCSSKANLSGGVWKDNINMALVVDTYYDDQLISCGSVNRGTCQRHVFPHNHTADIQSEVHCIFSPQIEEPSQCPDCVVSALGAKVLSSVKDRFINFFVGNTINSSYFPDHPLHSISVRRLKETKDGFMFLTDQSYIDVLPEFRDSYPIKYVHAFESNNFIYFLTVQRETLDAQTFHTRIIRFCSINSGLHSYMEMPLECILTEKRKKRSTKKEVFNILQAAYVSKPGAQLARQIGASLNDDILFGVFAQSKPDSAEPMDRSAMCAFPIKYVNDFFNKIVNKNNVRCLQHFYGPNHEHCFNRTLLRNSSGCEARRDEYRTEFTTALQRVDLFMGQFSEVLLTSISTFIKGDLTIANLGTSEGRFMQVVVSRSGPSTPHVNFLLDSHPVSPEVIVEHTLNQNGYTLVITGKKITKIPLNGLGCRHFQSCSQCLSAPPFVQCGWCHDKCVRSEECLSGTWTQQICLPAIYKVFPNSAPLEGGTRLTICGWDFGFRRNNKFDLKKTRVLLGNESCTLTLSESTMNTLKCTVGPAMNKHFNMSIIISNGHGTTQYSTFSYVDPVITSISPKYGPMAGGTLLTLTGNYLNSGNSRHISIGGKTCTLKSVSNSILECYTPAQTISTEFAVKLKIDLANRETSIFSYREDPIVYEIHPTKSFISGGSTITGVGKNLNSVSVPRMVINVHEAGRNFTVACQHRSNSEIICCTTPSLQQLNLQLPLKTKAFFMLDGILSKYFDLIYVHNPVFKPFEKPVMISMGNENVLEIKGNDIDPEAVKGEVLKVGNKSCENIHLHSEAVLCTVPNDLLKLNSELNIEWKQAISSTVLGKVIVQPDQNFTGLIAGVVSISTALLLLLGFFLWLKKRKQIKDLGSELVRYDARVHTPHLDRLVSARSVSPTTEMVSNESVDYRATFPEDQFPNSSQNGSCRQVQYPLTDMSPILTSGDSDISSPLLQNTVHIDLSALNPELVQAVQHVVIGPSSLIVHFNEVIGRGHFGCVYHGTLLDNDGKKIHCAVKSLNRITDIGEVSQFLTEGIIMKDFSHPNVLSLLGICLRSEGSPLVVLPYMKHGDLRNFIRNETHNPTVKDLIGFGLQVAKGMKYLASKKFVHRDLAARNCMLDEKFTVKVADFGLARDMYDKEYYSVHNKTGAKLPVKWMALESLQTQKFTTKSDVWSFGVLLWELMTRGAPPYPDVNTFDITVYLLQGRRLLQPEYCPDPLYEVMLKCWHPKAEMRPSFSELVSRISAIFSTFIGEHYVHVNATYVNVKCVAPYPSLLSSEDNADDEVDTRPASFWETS

An IC50 (Met kinase [1]) of 1 to 100 nM and an IC50 (Met kinase [2]) of 1 to 100 nM were found for COc1ccc2nnc(C(F)(F)c3cccc(-c4ncc(-c5cnn(CCN6CCCC6)c5)cn4)c3)n2n1 [A20] in this work.
An IC50 (Met kinase [1]) of 1 to 100 nM and an IC50 (Met kinase [2]) of 100 to 10000 nM were found for COCCOc1cnc(-c2cccc(Cc3nnc4ccc(C(=O)N(C)C)nn34)c2)nc1 [A40] in this work.
An IC50 (Met kinase [1]) of 1 to 100 nM and an IC50 (Met kinase [2]) of 100 to 10000 nM were found for COCCOc1cnc(-c2cccc(Cc3nnc4ccc(C(=O)O)nn34)c2)nc1 [A38, 3-{3-[5-(2-methoxyethoxy)pyrimidin-2-yl]benzyl}-1,2,4-triazolo[4,3-b]pyridazine-6-carboxylic acid] in this work.
An IC50 (Met kinase [1]) of 1 to 100 nM and an IC50 (Met kinase [2]) of 100 to 10000 nM were found for CNC(=O)c1ccc2nnc(Cc3cccc(-c4ncc(OCCOC)cn4)c3)n2n1 [A28] in this work.
An IC50 (Met kinase [1]) of 1 to 100 nM and an IC50 (Met kinase [2]) greater than 10000 nM were found for COCCOc1cnc(-c2cccc(Cc3nnc4ccc(C(=O)NCCO)nn34)c2)nc1 [A41] in this work.
An IC50 (Met kinase [1]) of 1 to 100 nM and an IC50 (Met kinase [2]) of 100 to 10000 nM were found for CCCNC(=O)c1ccc2nnc(Cc3cccc(-c4ncc(OCCOC)cn4)c3)n2n1 [A39, N-propyl-3-{3-[5-(2-methoxyethoxy)pyrimidin-2-yl]benzyl}-1,2,4-triazolo[4,3-b]pyridazine-6-carboxamide] in this work.
